This is an account of results in US20160208002A1, “Compositions Associated with and Methods of Managing Neutrophil Movement” (priority 2013, published 2016).

Each structure is given as a SMILES string.

Test [1] deals with C57/BL6 mice treated with bleomycin. Description: bleomycin-treated mice, cells in bronchoalveolar lavage (BAL). The format is in vivo. To be noted: 0.1 mg/kg intraperitoneal daily from day 1, day 3 after bleomycin, versus drug vehicle; FIG. 5A. How it is done:
The successful aspiration of bleomycin into the lungs was confirmed by listening for the crackling noise heard after the aspiration. 24 hours following bleomycin aspiration (day 1), mice were treated daily with intraperitoneal injections of 50 microliters of PBS containing 2 microliters of 1 mg/ml of compound 1 (ChemBridge Corporation, San Diego, Calif.) (0.1 mg/kg) dissolved in DMSO (SigmaAldrich, St. Louis, Mo.) or an equal volume of PBS containing 2 microliters of DMSO. All animals were used in accordance with rules published by the National Institutes of Health and with a protocol approved by the Texas A&M University Institutional Animal Care and Use Committee. Mice were weighed daily, and euthanized using CO2 following NIH guidelines at day 3 after bleomycin aspiration. There were no injections on day 3. […] The cells were resuspended in 500 microliters of 4% (w/v) BSA-PBS and counted with a hemacytometer. […] Primary antibodies were detected with biotinylated mouse anti-rat antibody (Jackson ImmunoResearch, West Grove, Pa.). […] Biotinylated antibodies were detected by a 1/500 dilution of ExtrAvidin alkaline phosphatase (Vector Laboratories, Burlingame, Calif.) in 4% BSA-PBS for 30 minutes. […] After washing, the biotinylated antibodies were detected by streptavidin-alkaline phosphatase kit (Vector Laboratories) following the manufacturer's protocol.

The subject of test [2] is human neutrophils. The experiment in a line: human neutrophil spreading on fibronectin-coated plates after TNF-α. The format is cell-based. To be noted: 3 microgram/ml compound, FIG. 3.

`CCC(=O)Nc1nc(C)c(-c2csc(Nc3ccc(N(C)C)cc3)n2)s1` [Compound 1]: in test [1], the “number of CD11b-positive inflammatory macrophages in the BAL” value is “decrease” and the “number of Ly6G-positive neutrophils in the BAL” value is “decrease”. Besides, the “neutrophil spreading compared to the TNF-α control” value in test [2] was “reduced neutrophil spreading”.
